Laboratory results reported in patent US20250381307A1, “RETRO-AAV AND USE IN TREATING NEURODEGENERATIVE DISEASES” (priority 2023, published 2025).

Experiments:
[1] = molecular target: hM3Dq (Homo sapiens, UniProt P20309, A239G/Y149C); test: In vivo electrophysiological recording in caudate, hM3Dq macaques, CNO infusion into dorsomedial caudate; design: host or cells: AAV8R12-transduced neurons (striatal D1-MSNs, some SNr neurons) of mice and macaques
Description: Electrophysiological recording was performed through a recording chamber while the monkey was anesthetized. Neural responses were recorded by a 16-channel linear probe (Plexon Inc, Uprobe) driven by a mechanical microdrive (Alpha Omega, FlexMT). Signals were passed through a head stage (Plexon Inc, HST/16V-G20 LN) and then split and filtered between 300 Hz and 5 kHz to identify spiking activity with an amplifier system (Plexon Inc, OmniPlex). Detected spikes were then sorted by commercially available software (Plexon Inc, Offline Sorter) for further analysis. To quantify the effect of CNO/DCZ injection, neural activity was recorded for 60 minutes following CNO/DCZ injection. The response time-course for each channel was obtained by counting the spikes within every 10-minute window and then normalizing to the maximal.
To determine the effect of CNO/DCZ injection on the direction of signal change, we performed Pearson correlation between neural responses and time using the ‘corr’ function in Matlab, which generates the correlation coefficient ‘r’ and significant level ‘p’. A neuron was considered to have “Increased” activity when r>0 and p<0.05; and considered to have “Decreased” activity when r<0 and p<0.05. Otherwise, neurons were considered to be “Unchanged” in their neural activities. The responses of all increased neurons were then averaged after being normalized by the maximal response (Crowe et al., 2014; Dai and Wang, 2018; Hirokawa et al., 2019) following CNO/DCZ injection, and then plotted as a function of time to generate the normalized population response.

[2] = molecular target: T1, rM3Ds (Rattus norvegicus, UniProt P08483, A177S/A238G/A489L/DEL261-437/DEL441-478/E258S/I253V/I483M/INS256[…]/K178L/K182A/K255R/K484R/K486H/L173F/L482A/M480V/R171S/R176Q/R179M/S481M/T174R/T181R/T257A/Y148C); test: Slice whole-cell recordings of rM3Ds-transduced MSNs; type: cell-based, mice; conditions: AAV8R12-G88P7-rM3Ds-2A-EYFP
T1 construct: rM3Ds; 2A-EYFP (C); host or cells: AAV8R12-transduced striatal D1-MSNs of mice and cynomolgus macaques (in vivo and acute slices)
From the text: Mice from different groups were anesthetized with […] isoflurane, and then decapitated. The brain was quickly extracted and placed in ice-cold N-methyl-D-glucamine (NMDG) cutting solution containing (in mM): 92 NMDG, 2.5 KCl, 25 NaHCO3, 1.25 NaH2PO4, 4.5 D-Glucose, 20 HEPES, 5 L-ascorbic acid, 3 Na-pyruvate, 2 Thiourea, 10 MgSO4, 0.5 CaCl2). The pH was adjusted to 7.2±0.1 using HCl and the osmolarity was adjusted to 305±5 mosmol/L using NMDG. The solution was bubbled with 95% O2/5% CO2 prior to use. Coronal striatum slices were cut in 250-[…]m thickness with a vibratome slicer (Leica, VT1200 S), and then incubated in artificial cerebrospinal fluid (aCSF) saturated with 95% O2/5% CO2 for at least 45 min at 37° C. before recording. The aCSF contains (in mM) 125 NaCl, 1.25 KCl, 25 NaHCO3, 1.25 KH2PO4, 25 D-Glucose, 2 CaCl2) and 1 MgCl2, supplemented with 2 mM Na-pyruvate, 3 mM Myo-inositol and 0.4 mM L-ascorbic acid.
The acute striatum slice was transferred to the recording chamber with a constant perfusion of oxygenized aCSF at the rate of 3 ml/min. Neurons were visualized using an upright microscope (Olympus, BX-51) with a 40×water immersion objective at room temperature (˜25° C.). […] Neurons were quickly visualized under fluorescence microscope and then patch clamp were achieved under infrared light illumination and CCD camera. […]

[3] = Locomotion test in naive macaques without viral injection; type: in vivo; conditions: naive macaques, n=3, not significant

hM3Dq, sequence (P20309 whole entry Y149C/A239G, the tested form may be a part): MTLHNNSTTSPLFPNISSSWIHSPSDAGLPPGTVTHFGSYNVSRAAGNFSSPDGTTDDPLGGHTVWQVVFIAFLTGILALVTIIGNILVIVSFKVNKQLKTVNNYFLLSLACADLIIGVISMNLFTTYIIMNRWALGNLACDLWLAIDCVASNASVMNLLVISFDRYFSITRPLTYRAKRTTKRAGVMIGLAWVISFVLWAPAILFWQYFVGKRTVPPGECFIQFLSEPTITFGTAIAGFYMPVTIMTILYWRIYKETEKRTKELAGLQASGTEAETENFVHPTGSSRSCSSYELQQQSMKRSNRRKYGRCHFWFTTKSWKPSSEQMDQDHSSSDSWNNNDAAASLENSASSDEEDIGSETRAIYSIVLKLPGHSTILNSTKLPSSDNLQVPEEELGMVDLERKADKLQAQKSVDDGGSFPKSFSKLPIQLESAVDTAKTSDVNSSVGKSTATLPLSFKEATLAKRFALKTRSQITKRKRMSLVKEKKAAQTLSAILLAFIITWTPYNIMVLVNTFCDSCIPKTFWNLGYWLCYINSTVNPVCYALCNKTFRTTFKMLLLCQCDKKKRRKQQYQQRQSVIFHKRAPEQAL
T1 sequence (P08483 other isoform, or with tags, fused parts or gaps with the stated changes): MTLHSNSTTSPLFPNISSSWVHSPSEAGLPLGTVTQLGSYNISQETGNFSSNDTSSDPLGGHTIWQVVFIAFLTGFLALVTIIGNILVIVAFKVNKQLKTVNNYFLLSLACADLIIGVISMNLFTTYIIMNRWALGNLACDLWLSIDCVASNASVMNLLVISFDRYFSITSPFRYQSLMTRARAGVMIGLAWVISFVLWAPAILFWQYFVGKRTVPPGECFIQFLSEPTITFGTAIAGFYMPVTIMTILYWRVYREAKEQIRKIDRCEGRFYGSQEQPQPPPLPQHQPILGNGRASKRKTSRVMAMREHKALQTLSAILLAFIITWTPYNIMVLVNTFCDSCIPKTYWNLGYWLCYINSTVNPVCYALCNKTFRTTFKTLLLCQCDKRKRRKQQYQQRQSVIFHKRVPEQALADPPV

C[N+]1([O-])CCN(C2=Nc3cc(Cl)ccc3Nc3ccccc32)CC1 [CNO, clozapine N-oxide]
caudate cells activated (FIG. 12L) ([1]; 34 total cells, saline 18.8%): 67.6%
caudate cells inactivated (FIG. 12L) ([1]; 34 total cells, saline 40.6%): 2.9%
caudate cells unchanged (FIG. 12L) ([1]; 34 total cells, saline 40.6%): 29.4%
caudate cells activated (FIG. 12C) ([1]; monkey CM045, 34 cells): 70.6%
caudate cells inactivated (FIG. 12C) ([1]; monkey CM045, 34 cells): 8.8%
caudate cells unchanged (FIG. 12C) ([1]; monkey CM045, 34 cells): 20.6%
excitability of D1-MSNs in parkinsonian mice ([2]; 6-OHDA mice, not with AAV8R12-G88P7-EYFP): increased excitability
excitability of labeled striatal MSNs ([2]; CNO 10 μM, no effect on basal firing rate or resting membrane potential): enhancement in the excitability
contraversive and ipsiversive rotation (FIG. 11C) ([3]; saline 0.767±0.4296): 0.8384±0.4152
speed of contraversive rotations (FIG. 11G) ([3]; saline 39.07±5.889): 39.63±7.092
speed of ipsiversive rotations (FIG. 11H) ([3]; saline 41.49±3.96): 42.79±4.705
total distance (FIG. 11F) ([3]; saline 53.12±15.3): 59.48±18.65
time spending in the higher portion of the observing cages (FIG. 11D) ([3]; saline 55.73±2.64): 60.43±4.542
immobile time (FIG. 11E) ([3]; saline 149.9±21.61): 149.8±22.65
